“Also recorded” adds a separate entry of the source.

Assay [1] concerns human PBMCs. The experiment in a line: HMGB1-induced cytokine/chemokine secretion, Cytokine Antibody Arrays. It counts as cell-based. Particulars: P2–1 5 or 10 μg/ml, HMGB1 0.5 or 2.0 μg/ml, 16 h. The procedure: (§1) Human blood was purchased from the New York Blood Center (Long Island City, NY, USA), and PBMCs were isolated by density gradient centrifugation through Ficoll (Ficoll-Paque PLUS) as previously described,[30]. PBMCs were cultured in RPMI-1640 supplemented with 10% human serum, 2 mM L-glutamine, 100 U/mL penicillin, and 100 μg/mL streptomycin (all from Invitrogen). For experiments, PBMCs were stimulated with recombinant human HMGB1 (0.5 or 2.0 μg/ml) for 16 hours, either alone or in combination with P2–1 at 5.0 or 10.0 μg/ml. Cell-free supernatants were collected for analysis of cytokines/chemokines levels by Cytokine Antibody Arrays, or pCTS-L levels by Western blotting analysis as described.
(§2) Levels of cytokines and chemokines in mouse serum and joint tissue lysates, or human PBMC culture supernatants were determined using murine or human Cytokine Antibody Arrays (e.g., Cat. No. M0308003 or Cat. No. AAH-CYT-3–4, RayBiotech Inc., Norcross, GA, USA) as previously described,[30],[86],[87]. Serum samples were collected from mice at 24 h post-CLP. The soft tissue of the hindpaw and ankle joints was carefully collected using a previously described protocol. Briefly, 0.5 g of fresh soft tissue was cut into 3 mm pieces, and mixed with 400 μL of a hypertonic solution (500 mL PBS with 4.5 g NaCl and 2× protease inhibitor cocktail) in a 10 mL syringe. Mechanical extrusion, involving 30 rapid back-and-forth movements of the plunger, was then performed. The expelled extracellular fluid was collected, immediately aliquoted, and stored at −20°C until analysis. Cell-conditioned medium was collected from PBMC cultures after 16 h of stimulation. Arrays were performed according to the manufacturer’s protocol, followed by chemiluminescent detection and densitometric quantification as previously described,[30].

For assay [2], the system named is sepsis-induced systemic cytokines and chemokines. In words: serum cytokines/chemokines in CLP sepsis, Cytokine Antibody Arrays. It counts as in vivo, Balb/C mice. Particulars: P2–1 0.1 or 1.0 mg/kg i.p. at 2 h and 20 h post-CLP; blood at 24 h. As for the experimental part:
Experimental sepsis was induced in Balb/C mice via cecal ligation and puncture (CLP) as previously described,[30],[37]. […] Briefly, mice were anesthetized intramuscularly with ketamine (75 mg/kg, Henry Schein Animal Health, Dublin, Ohio) and xylazine (10 mg/kg, Sigma-Aldrich) before a midline abdominal incision was made in the lower left abdomen. The cecum was ligated with a 4–0 silk suture at 50% of its length from the distal end, and punctured twice with a 21-gauge needle to induce moderate to severe sepsis. The cecum was returned to the abdominal cavity, and the incision was closed in layers. Approximately 30 min post-CLP, animals received imipenem/cilastatin (0.5 mg/mouse, Primaxin, Merck & Co., Inc.) and 1.0 mL of sterile saline for fluid resuscitation. Animals were randomized to control vehicle and experimental groups, administered P2 or P2–1 intraperitoneally at indicated doses and time points, and monitored for survival rates. To elucidate P2–1’s protective mechanisms, a separate group of Balb/C mice underwent CLP and received P2–1 (1.0 mg/kg) at 2 h and 20 h post-CLP. At 24 h post-CLP, animals were euthanized to collect blood and measure serum cytokines and chemokines using murine Cytokine Antibody Arrays.
as §2

Another assay addresses T1, Recombinant human HMGB1 (Homo sapiens, UniProt P09429).
T1 construct: made in house; host or cells: E. coli BL21 (DE3) pLysS
T1 sequence (P09429 1-215): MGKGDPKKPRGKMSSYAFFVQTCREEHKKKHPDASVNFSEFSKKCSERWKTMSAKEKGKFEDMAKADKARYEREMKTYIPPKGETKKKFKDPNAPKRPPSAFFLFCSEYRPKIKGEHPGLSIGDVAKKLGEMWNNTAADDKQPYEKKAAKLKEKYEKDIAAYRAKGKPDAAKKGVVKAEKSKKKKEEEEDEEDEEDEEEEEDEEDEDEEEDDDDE
In words: SPR (OpenSPR) binding to immobilized HMGB1. The note with it: immobilized HMGB1, HBS-P buffer; Fig. 5A; Mean ± SEM, n = 2 independent experiments. As for the experimental part:
Binding kinetics between HMGB1 and P2–1 were measured using Nicoya Life Science gold nanoparticle-based OpenSPR technology (Kitchener, ON, Canada) as previously described,[84]. Recombinant human HMGB1 was immobilized onto a Carboxyl sensor chip, and P2–1 peptide was flowed over immobilized HMGB1 at various concentrations in HBS-P buffer (GE Healthcare). Response units were recorded over time, and binding affinity was estimated as the equilibrium dissociation constant KD using Trace Drawer Kinetic Data Analysis v.1.6.1 (Nicoya Life Science).

Assay [3] has as its system human PBMCs. The experiment in a line: HMGB1-induced pCTS-L secretion, Western blot. Format: cell-based. Particulars: P2–1 5 or 10 μg/ml, HMGB1 0.5 or 2.0 μg/ml, 16 h, n = 4 independent experiments. As for the experimental part:
as §1
Cell-conditioned medium from human PBMC cultures was collected, and concentrated using Amicon Ultra Centrifugal Filters. Equal volumes of conditioned medium, representing equivalent numbers of cells, were resolved on sodium dodecyl sulfate (SDS)-polyacrylamide gels and transferred to polyvinylidene difluoride (PVDF) membranes. After blocking with 5% nonfat milk in Tris-buffered saline with 0.1% Tween 20 (TBST), membranes were probed with a home-made primary monoclonal antibody against pCTS-L (e.g., mAb2, 1:1000) overnight as previously described. After washing, membranes were incubated with a horseradish peroxidase-conjugated secondary antibody. Protein bands were visualized using enhanced chemiluminescence (ECL) substrate (Pierce) and detected with a chemiluminescence imaging system (e.g., Bio-Rad ChemiDoc MP). The relative levels of specific proteins were determined using the UN-SCAN-IT Gel Analysis Software Version 7.1 (Silk Scientific Inc., Orem, UT, USA) and expressed in arbitrary units (AU).
In general terms: In western blotting, separated proteins are transferred to a membrane and probed.

For the substance “54-TKVH(Nle)KSFLAFQTKT-69 [P2–1, water-soluble derivative of TN peptide P2 with Met to Norleucine and Cys to Ser substitutions]”, the “HMGB1-induced cytokine/chemokine secretion (words)” value in the assay with human PBMCs [1] was “did not affect the secretion of these HMGB1-induced cytokines and chemokines; also recorded: did not broadly inhibit the secretion of these HMGB1-induced cytokines and chemokines”. In addition, the “HMGB1-induced cytokine/chemokine secretion (words)” value in the assay on human PBMCs [1] (listed as P2-1) is reported as “does not broadly inhibit”. For the same substance, in assay [2], the sepsis-induced systemic inflammation result was “significantly attenuated”, the “serum BLC/CXCL13” value was “significantly reduced”, the “serum G-CSF” value was “significantly reduced” and the “serum IL-6” value is “significantly reduced”. Further, in assay [2], the “serum KC/GRO-α/CXCL1” value is “significantly reduced”, the “serum MCP-1/CCL2” value is reported as “significantly reduced”, the “serum MIP-1γ/CCL9/10” value was “significantly reduced” and the “serum MIP-2/GRO-β/CXCL3” value is listed as “significantly reduced”. For the same substance, the “serum sTNFRI” value in assay [2] is reported as “significantly reduced”. Besides, the Kd at Recombinant human HMGB1 came out at 24.1 ± 9.35 nM. Further, in the assay on human PBMCs [3], the “HMGB1-induced pCTS-L secretion” value is “dose-dependently abrogated HMGB1-induced pCTS-L secretion; also recorded: striking and dose-dependent suppression”. Moreover, the “HMGB1-induced pCTS-L secretion” value in the assay on human PBMCs [3] (listed as P2-1) is on record as “inhibitory effect”.

The Kd is the equilibrium constant for the complex coming apart.

Source of the values: paper PMC12458545, “Repurposing a Detrimental Antibody Epitope as Targeted Therapeutics for Sepsis and Rheumatoid Arthritis” (Research Square, 2025).
